# PubChem BioAssay (NCI)
# Where “and” joins values, the source holds several entries; their conditions need not be identical. Equal entries are not always repeated.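 Dose response: 5 concentrations. Exposure: 48 h. Format: 96-well plates. Endpoint: linear interpolation; highest concentration if not reached. GI50 marks 50% less growth. TGI is the concentration that stops growth completely.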
# Assays:
# Assay in all cases: NCI anticancer screen, dose series, 48 h
# [1] = system: A498 renal
# [2] = system: OVCAR-4 ovarian
# [3] = system: SN12C renal
# [4] = system: NCI-H226 lung
# [5] = system: HT29 colon
# [6] = system: CCRF-CEM leukemia
# [7] = system: LOX IMVI melanoma
# [8] = system: SNB-19 CNS
# [9] = system: UACC-62 melanoma
# [10] = system: SF-268 CNS
# [11] = system: M14 melanoma
# [12] = system: SF-295 CNS
# [13] = system: TK-10 renal
# [14] = system: HL-60(TB) leukemia
# [15] = system: MDA-MB-231 breast
# [16] = system: KM12 colon
# [17] = system: MCF7 breast
# [18] = system: UO-31 renal
# [19] = system: RXF 393 renal
# [20] = system: HOP-62 NSCLC
# [21] = system: T-47D breast
# [22] = system: SNB-75 CNS
# [23] = system: UACC-257 melanoma
# [24] = system: SK-OV-3 ovarian
# [25] = system: SK-MEL-28 melanoma
# [26] = system: IGROV1 ovarian
# [27] = system: SF-539 CNS
# [28] = system: CAKI-1 renal
# [29] = system: NCI-H460 lung
# [30] = system: 786-0 renal
# [31] = system: A549 NSCLC
# [32] = system: HCT-116 colon
# [33] = system: NCI-H23 lung
# [34] = system: SW-620 colon
# [35] = system: HCC-2998 colon
# [36] = system: HOP-92 NSCLC
# [37] = system: OVCAR-3 ovarian
# [38] = system: SR leukemia
# [39] = system: U251 CNS
# [40] = system: HS 578T breast
# [41] = system: PC-3 prostate
# [42] = system: OVCAR-5 ovarian
# [43] = system: EKVX NSCLC
# [44] = system: OVCAR-8 ovarian
# [45] = system: COLO 205 colon
# [46] = system: RPMI-8226 leukemia
# [47] = system: K-562 leukemia
# [48] = system: NCI-H522 lung
# [49] = system: MALME-3M melanoma
# [50] = system: ACHN renal
# [51] = system: BT-549 breast
# [52] = system: MDA-MB-435
# [53] = system: HCT-15 colon
# [54] = system: DU-145 prostate
# [55] = system: NCI/ADR-RES ovarian
# [56] = system: SK-MEL-2 melanoma
# [57] = system: SK-MEL-5 melanoma
# [58] = system: MOLT-4 leukemia
smiles,measurement,setting,value
Cc1sc2c(c1C)C(c1ccc(Cl)cc1)=N[C@@H](CC(=O)OC(C)(C)C)c1nnc(C)n1-2,GI50,[1],0.267 µM and 0.0617 µM
same,TGI,[1],1.46 µM and 1.15 µM
same,GI50,[2],0.123 µM and 0.15 µM
same,TGI,[2],17.2 µM and 16.1 µM
same,GI50,[3],8.65 µM and 1.95 µM
same,TGI,[3],25.9 µM and 22 µM
same,GI50,[4],2.81 µM and 10.3 µM
same,TGI,[4],22 µM and 22.8 µM
same,GI50,[5],0.209 µM and 0.0986 µM
same,TGI,[5],14.9 µM
same,GI50,[6],0.644 µM and 0.773 µM
same,TGI,[6],23 µM and 22.9 µM
same,GI50,[7],0.22 µM and 0.0673 µM
same,TGI,[7],11.2 µM and 13.9 µM
same,GI50,[8],0.629 µM and 0.421 µM
same,TGI,[8],> 47.2 µM and 18.9 µM
same,GI50,[9],0.107 µM and 0.0685 µM
same,TGI,[9],20.3 µM and 15.8 µM
same,GI50,[10],11.5 µM and 4.73 µM
same,TGI,[10],26.2 µM and 21.8 µM
same,GI50,[11],0.436 µM and 0.772 µM
same,TGI,[11],19.6 µM and 21.7 µM
same,GI50,[12],0.365 µM and 0.182 µM
same,TGI,[12],18.2 µM and 15.5 µM
same,GI50,[13],0.154 µM and 0.0583 µM
same,TGI,[13],12.7 µM and 13.4 µM
same,GI50,[14],0.118 µM and 0.0301 µM
same,GI50,[15],0.714 µM and 0.304 µM
same,TGI,[15],26 µM and 18.5 µM
same,GI50,[16],2.57 µM and 0.962 µM
same,TGI,[16],23.1 µM and 20.1 µM
same,GI50,[17],0.117 µM and 0.06 µM
same,TGI,[17],17.9 µM and 13.6 µM
same,GI50,[18],0.0634 µM and 0.0301 µM
same,TGI,[18],13.8 µM and 14.2 µM
same,GI50,[19],1.95 µM and 0.737 µM
same,TGI,[19],19 µM and 9.28 µM
same,GI50,[20],0.253 µM and 0.121 µM
same,TGI,[20],17.1 µM and 16.4 µM
same,GI50,[21],0.342 µM and 0.214 µM
same,TGI,[21],18.8 µM and 19 µM
same,GI50,[22],0.0325 µM and 0.025 µM
same,GI50,[23],0.313 µM and 0.146 µM
same,TGI,[23],19.5 µM and 17 µM
same,GI50,[24],0.756 µM and 0.326 µM
same,TGI,[24],19.4 µM and 15.6 µM
same,GI50,[25],1.98 µM and 0.397 µM
same,TGI,[25],20.2 µM and 15.2 µM
same,GI50,[26],0.808 µM and 0.645 µM
same,TGI,[26],25 µM and 18.9 µM
same,GI50,[27],0.639 µM and 0.462 µM
same,TGI,[27],19.4 µM and 17.9 µM
same,GI50,[28],0.0513 µM and 0.0532 µM
same,TGI,[28],18.2 µM and 15.1 µM
same,GI50,[29],1.55 µM and 0.603 µM
same,TGI,[29],22.6 µM and 19 µM
same,GI50,[30],0.605 µM and 0.841 µM
same,TGI,[30],19.9 µM and 18.9 µM
same,GI50,[31],0.73 µM and 0.312 µM
same,TGI,[31],21.8 µM and 15.3 µM
same,GI50,[32],0.44 µM and 0.311 µM
same,TGI,[32],16.4 µM and 15.4 µM
same,GI50,[33],0.45 µM and 0.28 µM
same,TGI,[33],18.7 µM and 18.6 µM
same,GI50,[34],10.9 µM and 4.09 µM
same,TGI,[34],28.1 µM and 22.9 µM
same,GI50,[35],0.379 µM and 0.291 µM
same,TGI,[35],13.8 µM and 14 µM
same,GI50,[36],0.0319 µM and 0.0183 µM
same,TGI,[36],0.39 µM and 0.29 µM
same,GI50,[37],1.24 µM and 0.498 µM
same,TGI,[37],18 µM and 15.6 µM
same,GI50,[38],0.229 µM and 0.0451 µM
same,TGI,[38],18.7 µM and 17.1 µM
same,GI50,[39],2.45 µM and 1.24 µM
same,TGI,[39],20.6 µM and 19 µM
same,GI50,[40],0.139 µM and 0.0567 µM
same,TGI,[40],18.4 µM and 18.1 µM
same,GI50,[41],1.58 µM and 1.08 µM
same,TGI,[41],24.6 µM and 16.7 µM
same,GI50,[42],11.9 µM and 10.4 µM
same,TGI,[42],25 µM and 22.7 µM
same,GI50,[43],3.17 µM and 1.18 µM
same,TGI,[43],20.5 µM and 18.2 µM
same,GI50,[44],0.875 µM and 0.62 µM
same,TGI,[44],26.8 µM and 20.5 µM
same,GI50,[45],0.378 µM and 0.143 µM
same,TGI,[45],11.7 µM and 3.8 µM
same,GI50,[46],0.142 µM and 0.0397 µM
same,TGI,[46],2.92 µM and 0.477 µM
same,TGI,[47],37.5 µM and 15.7 µM
same,GI50,[48],0.179 µM and 0.0566 µM
same,TGI,[48],7.38 µM and 11.6 µM
same,GI50,[49],11.4 µM and 4.84 µM
same,TGI,[49],26.4 µM and 22.1 µM
same,GI50,[50],0.67 µM and 0.496 µM
same,TGI,[50],18.3 µM and 15.8 µM
same,GI50,[51],1.15 µM and 3.1 µM
same,TGI,[51],20.8 µM and 20 µM
same,GI50,[52],0.348 µM and 0.135 µM
same,TGI,[52],20.3 µM and 17 µM
same,GI50,[53],0.308 µM and 0.157 µM
same,TGI,[53],13.4 µM and 13.7 µM
same,GI50,[54],13.4 µM and 8.51 µM
same,TGI,[54],33.3 µM and 22.1 µM
same,GI50,[55],0.506 µM and 0.396 µM
same,TGI,[55],24 µM and 20.9 µM
same,GI50,[56],5.51 µM and 5.34 µM
same,TGI,[56],21.8 µM and 22.5 µM
same,GI50,[57],0.0966 µM and 0.337 µM
same,TGI,[57],4.27 µM and 14.2 µM
same,GI50,[58],1.61 µM and 1.81 µM
same,TGI,[58],23 µM and 17.8 µM
Cc1cc(CC(C)CC(C)(C)C)n(O)c(=O)c1 (centres undefined) (tested in a mixture with another compound),GI50,[1],0.944 µM
same,TGI,[1],10.3 µM
same,GI50,[2],0.358 µM
same,TGI,[2],> 84.4 µM
same,GI50,[3],0.468 µM
same,TGI,[3],32.7 µM
same,GI50,[4],0.435 µM
same,TGI,[4],10.4 µM
same,GI50,[5],3.91 µM
same,TGI,[5],17.5 µM
same,GI50,[6],0.261 µM
same,TGI,[6],1.3 µM
same,GI50,[7],0.312 µM
same,TGI,[7],10.9 µM
same,GI50,[8],0.519 µM
same,TGI,[8],> 100 µM
same,GI50,[9],0.305 µM
same,TGI,[9],1.08 µM
same,GI50,[10],0.409 µM
same,TGI,[10],16.1 µM
same,GI50,[11],0.285 µM
same,TGI,[11],1.16 µM
same,GI50,[12],0.447 µM
same,TGI,[12],18.5 µM
same,GI50,[13],5.09 µM
same,TGI,[13],> 74.7 µM
same,GI50,[14],0.189 µM
same,TGI,[14],0.525 µM
same,GI50,[15],0.45 µM
same,TGI,[15],> 48.5 µM
same,GI50,[16],0.602 µM
same,TGI,[16],21.3 µM
same,GI50,[17],0.401 µM
same,TGI,[17],> 43 µM
same,GI50,[18],0.379 µM
same,TGI,[18],7.01 µM
same,GI50,[19],0.372 µM
same,TGI,[19],6.53 µM
same,GI50,[20],0.677 µM
same,TGI,[20],16.1 µM
same,GI50,[21],0.725 µM
same,TGI,[21],> 43.6 µM
same,GI50,[22],1.61 µM
same,TGI,[22],61.2 µM
same,GI50,[23],0.507 µM
same,TGI,[23],> 100 µM
same,GI50,[24],1.75 µM
same,TGI,[24],> 55.3 µM
same,GI50,[25],0.548 µM
same,TGI,[25],> 63.2 µM
same,GI50,[26],0.464 µM
same,TGI,[26],16.7 µM
same,GI50,[27],0.39 µM
same,TGI,[27],13.2 µM
same,GI50,[28],1.76 µM
same,TGI,[28],9.82 µM
same,GI50,[29],0.331 µM
same,TGI,[29],10.9 µM
same,GI50,[30],1.8 µM
same,TGI,[30],5.7 µM
same,GI50,[31],0.5 µM
same,TGI,[31],> 49.7 µM
same,GI50,[32],0.406 µM
same,TGI,[32],13.2 µM
same,GI50,[33],0.559 µM
same,TGI,[33],22 µM
same,GI50,[34],0.478 µM
same,TGI,[34],> 81.1 µM
same,GI50,[35],2.6 µM
same,TGI,[35],17.7 µM
same,GI50,[36],0.174 µM
same,TGI,[36],1.88 µM
same,GI50,[37],0.745 µM
same,TGI,[37],18.6 µM
same,GI50,[38],0.286 µM
same,TGI,[38],2.97 µM
same,GI50,[39],0.4 µM
same,TGI,[39],13.9 µM
same,GI50,[40],8.07 µM
same,TGI,[40],> 62.1 µM
same,GI50,[41],0.601 µM
same,TGI,[41],40 µM
same,GI50,[42],0.689 µM
same,TGI,[42],> 58 µM
same,GI50,[43],0.889 µM
same,TGI,[43],25.4 µM
same,GI50,[44],0.41 µM
same,TGI,[44],> 100 µM
same,GI50,[45],13.4 µM
same,TGI,[45],59.6 µM
same,GI50,[46],0.365 µM
same,TGI,[46],8.06 µM
same,GI50,[47],0.258 µM
same,TGI,[47],15.2 µM
same,GI50,[48],0.475 µM
same,TGI,[48],4.23 µM
same,GI50,[49],0.482 µM
same,TGI,[49],13 µM
same,GI50,[50],0.385 µM
same,TGI,[50],> 37.6 µM
same,GI50,[51],0.351 µM
same,TGI,[51],3.25 µM
same,GI50,[52],0.559 µM
same,TGI,[52],24.9 µM
same,GI50,[53],0.459 µM
same,TGI,[53],> 100 µM
same,GI50,[54],0.505 µM
same,TGI,[54],> 41.3 µM
same,GI50,[55],0.373 µM
same,TGI,[55],4.02 µM
same,GI50,[56],0.766 µM
same,TGI,[56],> 100 µM
same,GI50,[57],0.292 µM
same,TGI,[57],1.01 µM
same,GI50,[58],0.246 µM
same,TGI,[58],0.714 µM
